Results taken from patent US4731357A (Imperial Chemical Industries PLC, priority 1985, dated 1988).

How the values were obtained:
[1] = system: sectioned Achilles tendons; assay: Healing of sectioned Achilles tendons in the rat, urogastrone injected twice daily at the tendon lesion (experiment 1, Table 1); format: in vivo
Method: (§1) Male Wistar rats (240 g.) were subjected under general anaesthesia to partial tendonotomy of the left Achilles tendon, the small skin wound was then sutured and the animals allowed to recover. […] Normal saline was injected into a control group of operated animals (group [C]). […] After termination the scar tissue was removed from the point of insertion into the calcaneus bone to the point of merger of the tendon into the muscle mass. Weights of the scar tissue were measured after drying and defatting as described in Greenwald, S. E. and Berry, C. L. Cardiovasc. Res. 12,364-372 (1978). The collagen content was obtained from hydroxyproline measurements as described in Grant, R. A. J. Clin. Path. 17, 685-686 (1964) on the tissue after proteolytic (see Smith, R. L., Gilberson, E., Koliatsu, N., Merchant, T. and Schurman, D. J. Analyst. Biochem. 103, 191-200 (1980)) and alkaline (see Huzar, G., Maiocco, J. and Naftolin, F. Analyt. Biochem. 105 424-439 (1980)) digestion. The DNA content of the digests was determined using a sensitive fluorimetric technique (as described in Hinegardner, R. T. Analyt. Biochem. 39, 197-201). The results are ±SEM and were analyzed by Student' s t test. Figures in parentheses indicate the numbers of animals used in each group.

Intact tendon = assay: Urogastrone injected twice daily into the corresponding region of the unoperated leg (intact tendon, group B, Table 1); format: in vivo, rat; conditions: for Collagen / DNA / dry wt: intact tendon plus urogastrone 20 μg./kg. twice daily, ±SEM
Method: as §1

[2] = system: sectioned Achilles tendons; assay: Longer term effects of urogastrone injections on healing of sectioned Achilles tendons in the rat (experiment 2, Table 2); format: in vivo; conditions: for Lesion DNA / Lesion dry wt / Lesion Collagen: ±SEM
Method: as §1

[3] = system: sectioned Achilles tendon; assay: Graded doses of urogastrone on healing of sectioned Achilles tendons in rats (Example 2, FIGS. 3 and 4); format: in vivo, rat; conditions: 15 days after surgery
Method: The graded doses were injected twice daily into the immediate vicinity of the sectioned tendon.
FIG. 4 corresponds to FIG. 3, but represents graphically the collagen content of the repair lesions at the injected zone 15 days after surgery rather than the dry weight of the scar tissue formed at the said zone 15 days after surgery.
The rats employed were male Wistar rats (240 g) and the Achilles tendons were sectioned as described in Example 1.
Graded doses of urogastrone were given twice daily by injection into the immediate vicinity of the sectioned Achilles tendon in rats. […] FIGS. 3 and 4 present the dry weights and collagen contents respectively of the injected zones 15 days after surgery.

intact tendons = assay: Urogastrone 100 ug/kg injected twice daily into intact tendons in unoperated rats (Example 2); format: in vivo, rat; conditions: highest dose (100 ug./kg. twice daily); 15 days
[4] = system: acid secretion in the stomach; conditions: administered parenterally; known; cited from earlier work
[5] = 5 days after surgery, sectioned tendon, 20 μg./kg. twice daily at lesion, ±SEM, p < 0.001 vs saline
[6] = 9 days after surgery, sectioned tendon, 20 μg./kg. twice daily at lesion, ±SEM, p < 0.001 vs saline
[7] = first five days following surgery, statistically highly significant
[8] = 30 days after surgery, urogastrone days 1-15 then 15 days without treatment, NS vs saline

Urogastrone
Lesion DNA [1, 5]: 517 ± 12 µg | Lesion dry wt [1, 5]: 42.9 ± 2.0 mg | Lesion DNA [1, 6]: 653 ± 20 µg | Lesion dry wt [1, 6]: 61.1 ± 2.0 mg | Lesion Collagen ([1]; 9 days after surgery, sectioned tendon, 20 μg./kg. twice daily at lesion, ±SEM, p < 0.05 vs saline): 16.8 ± 0.9 mg | Lesion DNA ([1]; 15 days after surgery, sectioned tendon, 20 μg./kg. twice daily at lesion, ±SEM, NS vs saline): 556 ± 23 µg | Lesion dry wt ([1]; 15 days after surgery, sectioned tendon, 20 μg./kg. twice daily at lesion, ±SEM, p < 0.001 vs saline): 53.3 ± 2.8 mg | Apparent increase in DNA content of urogastrone-treated lesions ([1]; day 15, not significantly different from the control value): 8% | Increase in collagen over saline-injected controls ([1]; fifteen days after surgery): 28% | Increase in dry weight over saline-injected controls ([1]; fifteen days after surgery): 24% | Increase in collagen content of scar tissue compared with saline-injected controls [1, 7]: 61% | Increase in dry weight of scar tissue compared with saline-injected controls [1, 7]: 38% | Collagen (Intact tendon; 5 days, NS vs intact tendon): 6.1 ± 0.3 mg | DNA (Intact tendon; 5 days, NS vs intact tendon): 94.3 ± 8.5 µg | dry wt (Intact tendon; 5 days, NS vs intact tendon): 12.7 ± 1.6 mg | Collagen (Intact tendon; 9 days, NS vs intact tendon): 7.0 ± 0.5 mg | dry wt (Intact tendon; 9 days, NS vs intact tendon): 14.1 ± 1.2 mg | DNA (Intact tendon; 9 days, p < 0.05 vs intact tendon): 124 ± 10 µg | Collagen (Intact tendon; 15 days, NS vs intact tendon): 7.0 ± 0.3 mg | DNA (Intact tendon; 15 days, NS vs intact tendon): 101 ± 6 µg | Effect on unoperated tendon in the opposite leg (Intact tendon; injected twice daily, throughout the treatment period, possible exception of increased DNA content after nine days): little or no effect | Lesion DNA ([2]; 15 days after surgery, urogastrone days 1-15, 20 ug./kg. twice daily, NS vs saline): 668 ± 32 µg | Lesion dry wt ([2]; 15 days after surgery, urogastrone days 1-15, 20 ug./kg. twice daily, p < 0.001 vs saline): 61.8 ± 1.3 mg | Lesion Collagen ([2]; 15 days after surgery, urogastrone days 1-15, 20 ug./kg. twice daily, p < 0.01 vs saline): 28.1 ± 0.9 mg | Lesion Collagen [2, 8]: 28.7 ± 1.2 mg | Lesion dry wt [2, 8]: 50.2 ± 1.1 mg | Lesion DNA ([2]; 30 days after surgery, urogastrone days 1-15 then 15 days without treatment, p < 0.05 vs saline): 397 ± 17 µg | Lesion DNA ([2]; 30 days after surgery, urogastrone days 1-30, 20 ug./kg. twice daily, NS vs saline): 495 ± 17 µg | Lesion Collagen ([2]; 30 days after surgery, urogastrone days 1-30, 20 ug./kg. twice daily, p < 0.001 vs saline): 32.1 ± 1.3 mg | Lesion dry wt ([2]; 30 days after surgery, urogastrone days 1-30, 20 ug./kg. twice daily, p < 0.01 vs saline): 56.8 ± 2.0 mg | Dry weight and collagen content of the scars versus animals untreated throughout ([2]; dosing stopped after fifteen days, treatment free for a further fifteen days): no longer distinguishable | Collagen content of repair lesion higher than saline-treated control lesions ([2]; thirty days on urogastrone): 27% | DNA contents of urogastrone versus saline-treated lesions ([2]; thirty days on urogastrone): essentially the same | Dry weight of repair lesion higher than saline-treated control lesions ([2]; thirty days on urogastrone): 19% | Collagen contents of the repair lesions ([3]; 20 μg./kg. twice daily): not in the collagen contents | Dry weights of the repair lesions ([3]; 20 μg./kg. twice daily): statistically significant increase | Collagen contents of the repair lesions ([3]; 50 μg./kg. twice daily): significantly increased | Dry weights of the repair lesions ([3]; 50 μg./kg. twice daily): significantly increased | Collagen contents of the repair lesions ([3]; 100 μg./kg. twice daily): significantly increased | Dry weights of the repair lesions ([3]; 100 μg./kg. twice daily): significantly increased | Collagen contents (intact tendons): increased | Dry weight (intact tendons): increased | Acid secretion in the stomach [4]: inhibit acid secretion in the stomach
